Laboratory results published in patent US7910622B2, “Modulation of bacterial quorum sensing with synthetic ligands” (Wisconsin Alumni Research Foundation, priority 2007, dated 2011).

Legend:
Test in all cases: cell-based
TraR = target: T1, TraR (Agrobacterium tumefaciens, UniProt P33905); conditions: for activation at 10 µM: read-out: A. tumefaciens-TraR Activation [%]
T1 construct: These strains lack their AHL synthase (I) genes, but retain their native R genes; endogenous in cells; host or cells: A. tumefaciens WCF47 (Δ-traI) with PtraI-lacZ plasmid pCF372
T1 sequence (P33905 whole entry): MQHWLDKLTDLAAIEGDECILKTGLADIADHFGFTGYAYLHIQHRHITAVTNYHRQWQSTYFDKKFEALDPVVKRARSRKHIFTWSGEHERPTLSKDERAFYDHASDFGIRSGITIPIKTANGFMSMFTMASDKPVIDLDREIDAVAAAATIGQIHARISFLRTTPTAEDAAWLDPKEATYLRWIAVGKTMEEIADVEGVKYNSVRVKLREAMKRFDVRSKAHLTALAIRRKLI
Procedure: A. tumefaciens reporter gene assay protocols. […] An overnight culture of A. tumefaciens WCF47 (pCF372) was diluted to an OD600 of 0.1 in fresh AB minimal medium containing 400 μg/mL octopine and 50 μg/mL streptomycin. A 200 μL-portion of the diluted culture was added to each well of the multititer plate containing AHLs. Plates were grown at 28° C. for 18-20 h in a rotary shaking incubator (200 rpm). The cultures were then assayed for β-galactosidase activity following the Miller assay method. Briefly, 200 μL aliquots of bacteria from each of the wells were added to wells of a polystyrene 96-well plate and the OD600 of each well was recorded. Next, 50 μL aliquots from each well were transferred to a solvent resistant 96-well plate containing 200 μL Z buffer, 8 μL CHCl3 and 4 μL 0.1% aq. sodium dodecylsulfate (SDS). This suspension was mixed via repetitive pipetting, after which the CHCl3 was allowed to settle. A 100-μL aliquot from each well was transferred to a fresh polystyrene 96-well plate, and 20 μL of substrate, o-nitrophenyl-β-D-galactopyranoside (ONPG, 4 μg/mL in phosphate buffer), was added at time zero. After the development of appropriate yellow color (ca. 15-35 min), the reaction was terminated by the addition of 50 μL of 1 M Na2CO3. Absorbance at 420 nm and 550 nm was measured for each well using a plate reader, and Miller units were calculated according to standard methods.
(§1) Dose response reporter gene assays. […] IC50 and EC50 values were calculated using GraphPad Prism software (v. 4.0) using a sigmoidal curve fit.
A. tumefaciens reporter gene assay protocols. […] An overnight culture of A. tumefaciens WCF47 (pCF372) was diluted 1:10 with fresh AB minimal medium containing 400 μg/mL octopine and 50 μg/mL streptomycin. A 200 μL portion of the diluted culture was added to each well of the multititer plate containing AHLs. Plates were incubated at 28° C. for 18-24 h. The cultures were then assayed for β-galactosidase activity following the Miller assay method. Briefly, 200 μL aliquots of bacteria from each of the wells were added to wells of a 96-well multititer plate, and the OD600 of each well was recorded. Next, 50 μL aliquots from each well were transferred to a solvent resistant 96-well multititer plate containing 200 μL Z buffer, 8 μL CHCl3 and 4 μL 0.1% aq. SDS. This suspension was mixed via repetitive pipetting, after which the CHCl3 was allowed to settle. A 100 μL aliquot from each well was transferred to a fresh 96-well multititer plate, and 20 μL of substrate, o-nitrophenyl-β-D-galactopyranoside (ONPG, 4 μg/mL in phosphate buffer), was added at time zero. After the development of appropriate yellow color (ca. 20-30 min), the reaction was terminated by the addition of 50 μL of 1 M Na2CO3. Absorbances at 420 nm and 550 nm were measured for each well using a plate reader, and Miller units were calculated according to standard methods.
as §1

LasR [1] = target: T2, LasR (Pseudomonas aeruginosa, UniProt P25084); assay type: cell-based; conditions: for inhibition at 5 µM: read-out: E. coli-LasR Inhibition [%], 5 μM synthetic ligand against 7.5 nM OdDHL; for inhibition at 5 µM / E. coli-LasR Inhibition [%]: E. coli DH5α (pJN105L pSC11), normalized to OdDHL; for E. coli-LasR Inhibition [%]: 5 μM synthetic ligand against 7.5 nM OdDHL
T2 construct: expressed in transfected cells; host or cells: E. coli DH5α (pJN105L pSC11), arabinose-induced
T2 sequence (P25084 whole entry): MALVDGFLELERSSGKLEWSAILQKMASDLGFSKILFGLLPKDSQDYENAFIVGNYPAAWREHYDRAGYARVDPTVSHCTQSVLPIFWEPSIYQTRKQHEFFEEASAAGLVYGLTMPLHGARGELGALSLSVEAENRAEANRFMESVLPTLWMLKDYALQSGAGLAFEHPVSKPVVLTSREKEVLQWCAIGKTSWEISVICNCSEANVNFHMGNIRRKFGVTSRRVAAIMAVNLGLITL
Procedure: (§2) E. coli LasR reporter gene assay protocols. […] An overnight culture of E. coli DH5a (pJN105L pSC11) grown at 37° C. was subculture by diluting 1/10 in fresh LB medium containing 100 μg/mL ampicillin and 15 μg/mL gentamicin and shaking at 37° C. until OD600=0.3. Arabinose (4 mg/mL) was then added to induce the LasR promoter and a 200 μL-portion of this culture was added to each well of the multititer plate containing AHLs. Plates were grown at 37° C. for 2 hours in a rotary shaking incubator (200 rpm; OD600=0.45). The cultures were then assayed for activity following the identical β-galactosidase assay protocols used in the A. tumefaciens reporter gene assays.
as §1
(§3) E. coli LasR reporter gene assay protocols. […] An overnight culture of E. coli DH5α (pJN105L pSC11) was diluted 1:10 with fresh LB medium containing 100 μg/mL ampicillin and 15 μg/mL gentamicin. This sub-culture was incubated at 37° C. until OD600=0.3 (4-6 h). Arabinose (4 mg/mL) was then added to induce the LasR promoter, and a 200 μL portion of this culture was added to each well of the multititer plate containing AHLs. Plates were incubated at 37° C. until OD600=0.45 (4-6 h). The cultures were then assayed for LasR activity following the identical β-galactosidase assay protocols used in the A. tumefaciens reporter gene assays (see above).
as §1

LasR [2] = target: T2, LasR; conditions: E. coli DH5α (pJN105L pSC11), normalized to OdDHL
Procedure: as §2, §1, §3, §1

LuxR [3] = target: T3, LuxR (Aliivibrio fischeri, UniProt P35327); parameters: species or system Vibrio fischeri; conditions: for activation at 200 µM: read-out: V. fischeri-LuxR Activation [%], 200 μM ligand
T3 construct: a Δ-luxI derivative of V. fischeri ES114, in which the native lux operon behaves as the bioluminescent reporter; endogenous in cells; host or cells: V. fischeri ES114 (Δ-luxI)
T3 sequence (P35327 whole entry): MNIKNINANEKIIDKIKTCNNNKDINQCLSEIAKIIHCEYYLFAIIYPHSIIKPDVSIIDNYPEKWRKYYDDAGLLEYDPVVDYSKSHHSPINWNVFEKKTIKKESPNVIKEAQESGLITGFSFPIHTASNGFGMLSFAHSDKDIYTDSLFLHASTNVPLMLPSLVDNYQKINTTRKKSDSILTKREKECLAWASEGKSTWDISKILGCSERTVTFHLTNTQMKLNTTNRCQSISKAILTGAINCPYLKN
Procedure: (§4) Luminescence assays. For agonism assays, an appropriate amount of AHL stock solution was added into a 96-well plate. An overnight culture of E. coli or V. fischeri was diluted 1:10 with appropriate media (LB plus 10 μg/mL tetracycline for E. coli; LBS for V. fischeri). A 200-μL portion of the diluted culture was added to each well of the plate. Plates were grown for 4-8 h with shaking (200 rpm; 30° C. for E. coli and RT for V. fischeri). Luminescence was measured using a multilabel plate reader and normalized to cell density. […] All assays were performed in triplicate. Graphpad Prism software was used to calculate IC50 and EC50 values.
(§5) Vibrio fischeri assay procedures. […] An overnight culture of V. fischeri ES114 (WT, Δ-luxI or Δ-luxR) was diluted 1:10 with LBS medium. A-200 μL portion of the diluted culture was added to each well of the plate. Plates were grown at RT with shaking (200 rpm) until the OD600=0.35-0.4 (4-6 h). Luminescence then was measured and normalized to cell density per well. […] All assays were performed in triplicate. IC50 and EC50 values were calculated using GraphPad Prism software using a sigmoidal curve fit.
(§6) V. fischeri reporter gene assay protocols. […] An overnight culture of V. fischeri ES114 (D-luxI) was diluted 1:10 with LBS medium. A 200-μL portion of the diluted culture was added to each well of the multititer plate. Plates were grown at RT with shaking (200 rpm) until the OD600=0.35-0.4 (4-6 h). Luminescence then was measured and normalized to cell density per well.
as §1
as §6, with “(Δ-luxI)” for “(D-luxI)”, “A200 μL” for “A 200-μL”, “incubated” for “grown”, “RT” for “RT with shaking (200 rpm)”
as §1

LuxR [4] = target: T3, LuxR; assay type: cell-based, Vibrio fischeri; conditions: V. fischeri ES114 (Δ-luxI), normalized to OHHL; for V. fischeri-LuxR Inhibition [%]: 5 μM synthetic ligand against 5 μM OHHL; for inhibition at 5 µM: read-out: V. fischeri-LuxR Inhibition [%], 5 μM synthetic ligand against 5 μM OHHL
Procedure: as §4, §5, §6, §1
as §6, with “(Δ-luxI)” for “(D-luxI)”, “A200 μL” for “A 200-μL”, “incubated” for “grown”, “RT” for “RT with shaking (200 rpm)”
as §1

[5] = V. fischeri ES114 (Δ-luxI), normalized to OHHL

## CCCC(=O)CC(=O)N[C@H]1CCOC1=O [compound 3]
TraR
  activation at 10 µM: 1%
TraR; read-out: A. tumefaciens-TraR Inhibition [%], 10 μM synthetic ligand against 100 nM OOHL, A. tumefaciens WCF47 (pCF372), normalized to OOHL
  inhibition at 10 µM: 89%
LasR [1]
  inhibition at 5 µM: 15%
LasR [2]; read-out: E. coli-LasR Activation [%], 5 μM ligand
  activation at 5 µM: 1%
LuxR [3]; LuxR EC50, V. fischeri ES114 (Δ-luxI)
  EC50: 3000 nM
LuxR [3]; [5]
  activation at 200 µM: 100%

## O=C(Cc1ccc(O)cc1)N[C@H]1CCOC1=O [11w, 4-hydroxy PHL]
LuxR [4]
  V. fischeri-LuxR Inhibition [%]: lowest inhibitory activities

## 4-azido PHL [B20]
TraR; 10 μM ligand, A. tumefaciens WCF47 (pCF372), normalized to OOHL
  A. tumefaciens-TraR Activation [%]: 0%
LasR [1]
  E. coli-LasR Inhibition [%]: 19%
LasR [2]; 5 μM ligand
  E. coli-LasR Activation [%]: 0%
LuxR [3]; 200 μM ligand, V. fischeri ES114 (Δ-luxI), normalized to OHHL
  V. fischeri-LuxR Activation [%]: 5%

## O=C(Cc1ccc(Br)cc1)N[C@@H]1CCOC1=O [D-5]
LuxR [4]
  V. fischeri-LuxR Inhibition [%]: ca. 20%

## O=C(Cc1ccccc1)N[C@H]1CCOC1=O [11a]
LuxR [4]
  V. fischeri-LuxR Inhibition [%]: abolished inhibitory activity

## Nc1ccc(CC(=O)N[C@H]2CCOC2=O)cc1 [11v, 4-amino PHL]
LuxR [4]
  V. fischeri-LuxR Inhibition [%]: lowest inhibitory activities

## O=C(Cc1ccc(-c2ccccc2)cc1)N[C@H]1CCOC1=O [11q, 4-phenyl PHL]
LuxR [4]
  inhibition at 5 µM: ~80%

## CCCCCC(=O)CC(=O)N[C@H]1CCOC1=O [compound 1, N-(3-oxo-octanoyl)-L-homoserine lactone, reference compound]
TraR; EC50 of autoinducer in A. tumefaciens WCF47 (pCF372), value in method text
  EC50: 100 nM
TraR; TraR EC50
  EC50: 200 nM
TraR
  activation at 10 µM: 100%
LasR [1]
  E. coli-LasR Inhibition [%]: 50%
  inhibition at 5 µM: ≥ 50%
LasR [1]; determined against 7.5 nM OdDHL, read-out: LasR IC50
  IC50: 110 nM
LuxR [4]
  inhibition at 5 µM: 63%
LuxR [3]; [5]
  activation at 200 µM: ~25%

## O=C(CCCc1ccccc1)N[C@@H]1CCOC1=O [D-3]
LuxR [4]
  V. fischeri-LuxR Inhibition [%]: ca. 20%
